The structures appear in SMILES notation.

The results in this text go back to a melting point compilation (Tetko et al.).

By melting point is commonly meant the temperature of the solid-liquid transition. The compound `O=C(O)C(F)(F)C(F)(F)C(F)(F)C(F)(F)C(F)(F)C(F)(F)C(F)(F)C(F)(F)C(F)(F)F` showed a melting point of 87.4 to 88.2 °C.

`O=C(O)Cc1ccc2c(c1)NC(=O)C2` displayed a melting point of 238 °C.

`COc1cc(F)c(Br)cc1F` yielded a melting point of 63 °C.

The compound `O=Cc1cc(Cl)cc(Br)c1O` came in with a melting point of 86 °C.

Turning to `NN=C(c1ccccc1)c1ccccc1`, the melting point is 96.5 °C.

The compound `O=Cc1cccc2ccnn12` yielded a melting point of 85 °C.

`Nc1ccc(N)c2c1C(=O)c1c(N)ccc(N)c1C2=O` had a melting point of 285 °C.

The compound `CCO[P@](=O)(c1ccc(OC)cc1)N1Cc2ccccc2C[C@@H]1C(=O)NO` returned a melting point of 167 °C.

In turn, `N#C/C(=N\Nc1ccc([N+](=O)[O-])cc1)c1nc2ccccc2c(=O)[nH]1` displayed a melting point of 273 °C.

For the compound `O=C(C1=NOC2C(=O)N(c3ccccc3Cl)C(=O)C12)c1cccs1` (stereo not drawn), the melting point was found to be 180 °C.

Turning to `CC(=O)NC(CC(=O)O)C(=O)O` (stereo not drawn), the melting point was 138 °C.

`COc1cc(C)c(C=CC(C)=CC=CC(C)=CC(=O)O)c(C)c1C`: the melting point worked out at 228 °C.

`Cc1cc(Sc2cc(C)c(O)c(C(C)(C)C)c2)cc(C(C)(C)C)c1O` registered a melting point of 126 °C.

Consider `O=C(Cl)c1ccc(N2CCOCC2)nc1`, for which the melting point was in the range of 158 to 159 °C.

In turn, `OCC1OC(Oc2ccc(O)cc2)C(O)C(O)C1O` (stereo not drawn) came in with a melting point of 200 °C.

Turning to `CC(C)Nc1nc(Cl)nc(NC2CC2)n1`, the melting point worked out at 167 °C.

`Cc1ccc(Cn2ncc3c(N)ncnc32)cc1` yielded a melting point of 222 °C.

With `COC(=O)NCCc1ccccc1NC(C)=O`, the melting point was found to be 107 °C.

The compound `CCOC(=O)Cc1ccc(O)cc1` had a melting point of 39 to 40 °C.

In the case of `COC1(OC)C2C=CC(C)(O2)C1C(=O)O` (stereo not drawn), the melting point is 176 to 178 °C.

In turn, `Nc1[nH]ncc1-c1ccc(F)cc1` showed a melting point of 174 to 175 °C.

Compound `COCC(=NOCC(=O)OC)c1cc(Oc2ccc(C(F)(F)F)cc2Cl)ccc1[N+](=O)[O-]` displayed a melting point of 58 °C.

`CCCCCCCCCC(=O)OC1CCC2C3CCC4=CC(=O)CCC4C3CCC12C` (stereo not drawn) showed a melting point of 118 °C.

On to `C=C(CCl)CCl`, for which the melting point amounted to 14 °C.

Regarding `CC(C)Nc1ccc(C#N)cc1[N+](=O)[O-]`, the melting point lay in the range of 113 to 115 °C.

The compound `O=C(Cl)c1nc2ccccc2s1` yielded a melting point of 150 °C.

The compound `Nc1nc2ccc(OC(F)(F)F)cc2s1` gave a melting point of 119 °C.

Take `O=C(Cl)c1cccc2c1OCCO2`: the melting point fell in the range of 98 to 99 °C.

`O=C1NN(c2ccccc2)C(=O)C1=C1SC=C(c2ccccc2)S1` showed a melting point of 288 to 290 °C.

As for `N#Cc1ccc(Cn2cccn2)cc1`, the melting point is 80 to 82 °C.

With `OCC(O)COc1ccccc1` (stereo not drawn), the melting point came to 62.8 °C.

The compound `NCCC(=O)N[C@@H](Cc1c[nH]cn1)C(=O)O` gave a melting point of 260 °C.

With `Nc1ccc(N)c2c1C(=O)c1cccc([N+](=O)[O-])c1C2=O`, the melting point is 257 °C.

Take `COc1ccc(-c2noc(CCl)n2)cc1`: the melting point lay within 52 to 53 °C.

In turn, `Nc1cccc(C=CC(=O)c2ccccc2)c1` came in with a melting point of 159 °C.

`Cc1onc(-c2ccc(F)cc2)c1C(=O)O` returned a melting point of 197 to 200 °C.

In turn, `CC(C)(C)C1CCCCC1O` (stereo not drawn) yielded a melting point of 45 °C.

With `c1ccc(-c2nnc(NC3=NCCN3CN3CCCCC3)s2)cc1`, the melting point is 133 to 134 °C.

On to `CCS(=O)(=O)c1ccc(F)cc1`, for which the melting point amounted to 41 °C.

`Clc1ccccc1-c1ccccc1Cl` had a melting point of 61.5 °C.

`COC(=O)c1cnc(Br)s1` gave a melting point of 63 °C.

`COC(=O)[C@@H](NC(=O)OCc1ccccc1)[C@@H](C)O` returned a melting point of 92 to 94 °C.

Consider `CCc1cccc(C)c1N(COC(C)C)C(=O)CCl`, for which the melting point turned out to be 21.6 °C.

The compound `CC(=O)C1CCc2ccccc2C1=O` (stereo not drawn) came in with a melting point of 56 °C.

Compound `N#C/C(=N\Nc1ccc(S(=O)(=O)O)cc1)c1nc2ccccc2s1` had a melting point of 193 °C.

`Cn1c(N)nc2ccccc21` gave a melting point of 203 to 206 °C.

Consider `Clc1ccccc1-c1ccccc1`, for which the melting point came to 34 °C.

For the compound `CC(=CCNc1ncnc2c1ncn2C1OC(CO)C(O)C1O)CO` (stereo not drawn), the melting point fell in the range of 179 to 180 °C.

`Cc1ccc(N2CCCC2=O)cc1` gave a melting point of 86 to 88 °C.

`CCc1ccc2cc3ccccc3cc2c1` showed a melting point of 152 °C.

In the case of `CC(=O)C1(C)Cc2ccccc2C(=O)O1` (stereo not drawn), the melting point worked out at 105 °C.

As for `NCc1ccc2occc2c1`, the melting point was in the range of 32 to 34 °C.

For the compound `Nc1ccc(Br)cn1`, the melting point is 138 °C.

Regarding `Cc1oc(C(C)(C)C)cc1C(=O)Cl`, the melting point was in the range of 41 to 44 °C.

The compound `CC(=NO)c1ccn(S(=O)(=O)c2ccccc2)c1` displayed a melting point of 162 to 165 °C.

The compound `COc1ccc(N=C(CNc2ccc(OC)cc2)Nc2ccc(OC)cc2)cc1` showed a melting point of 158 to 159 °C.

For `COc1ccc(-c2ccccc2)cc1NNC(=O)OC(C)C`, the melting point is 122 °C.

In turn, `CC(C)N1CSc2nnc(-c3ccc([N+](=O)[O-])cc3)n2C1` returned a melting point of 260 °C.

For the compound `CC(OCc1ccccc1)C(NC(=O)OC(C)(C)C)C(=O)O` (stereo not drawn), the melting point came to 116 °C.

For the compound `CCCCCCCCCCC(=O)OCC`, the melting point was -15 °C.

Compound `CCOc1c2cccc1Cc1cccc(c1O)Cc1cccc(c1OP(=O)(OCC)OCC)Cc1cccc(c1O)C2` registered a melting point of 173 to 174 °C.

`CS(=O)(=O)c1cc(Cl)c(O)c(Cl)c1` had a melting point of 223 to 224 °C.

Compound `CC#CC1(O)CCCCC1` yielded a melting point of 48 °C.

Consider `CC(=O)CCc1ccc(CCC(C)NC(=O)c2ccccc2)cc1` (stereo not drawn), for which the melting point stood at 122 °C.

Consider `ClCc1csc(-c2ccc(Cl)cc2)n1`, for which the melting point lay in the range of 78 to 79 °C.

In turn, `Oc1cc(Cl)c(Cl)c(Cl)c1Cl` gave a melting point of 116 °C.

In turn, `O=C(NC(=C(NC(=O)c1ccccc1)c1ccccc1)c1ccccc1)c1ccccc1` had a melting point of 100 °C.

For the compound `Clc1cc(Cl)c2ccccc2n1`, the melting point came to 67.5 °C.

`CCCCOC(=O)CC(=O)OCCCC` had a melting point of -83 °C.

`NC(=S)CS(=O)(=O)c1cccs1` showed a melting point of 160 to 164 °C.

Take `CNC1CCC2(C)C(CCC3C2CCC2(C)C3CCC2C(C)N(C)C)C1` (stereo not drawn): the melting point stood at 172 °C.

In turn, `CC(=O)N1C(C(=O)O)Cc2c([nH]c3ccccc23)C1(C)C` (stereo not drawn) came in with a melting point of 160 °C.

Consider `CCCCCCCCCCCCCCCCCCOC(=O)CCc1cc(C(C)(C)C)c(O)c(C(C)(C)C)c1`, for which the melting point is 52.5 °C.

For the compound `Cc1sc(-c2ccccn2)nc1-c1ccccc1`, the melting point amounted to 86 °C.

The compound `CCCCCCCC/C=C\CCCCCCCC#N` returned a melting point of -1 °C.

As for `CCCC1CC(C(=O)NC(C(C)Cl)C2OC(SC)C(O)C(O)C2O)N(C)C1` (stereo not drawn), the melting point was 141 °C.

With `Cc1ccc(NN=C2C(=O)NN=C2C(F)(F)F)cc1`, the melting point is 230 °C.

For `OCC#CC#CCO`, the melting point is 112 °C.
